Laboratory results published in ChEMBL document CHEMBL5233269, “Anticancer potential of spirocompounds in medicinal chemistry: A pentennial expedition” (Eur J Med Chem, 2021).
Values after ≈ are worked out from the molar mass of the structure shown.

Tests used:
[1] = test system: A549; assay: Cytotoxicity against human A549 cells assessed as inhibition of tumor cell proliferation incubated for 72 hrs by MTT assay; format: functional, cell-based; conditions: A549, 72 h
[2] = test system: ECa-109 cell line; assay: Cytotoxicity against human EC109 cells assessed as inhibition of tumor cell proliferation incubated for 72 hrs by MTT assay; format: functional, cell-based; conditions: ECa-109, 72 h
[3] = test system: MGC-803; assay: Cytotoxicity against human MGC-803 cells assessed as inhibition of tumor cell proliferation incubated for 72 hrs by MTT assay; format: functional, cell-based; conditions: MGC-803, 72 h
[4] = test system: SMMC-7721; assay: Cytotoxicity against human SMMC-7721 cells assessed as inhibition of tumor cell proliferation incubated for 72 hrs by MTT assay; format: functional, cell-based; conditions: SMMC-7721, 72 h
[5] = test system: B16-F10; assay: Anticancer activity against mouse B16-F10 cells; format: functional, cell-based
[6] = test system: HeLa; assay: Anticancer activity against human HeLa cells assessed as inhibition of cell proliferation; format: functional, cell-based
[7] = biological target: cGMP-specific 3',5'-cyclic phosphodiesterase (Homo sapiens) (UniProt O76074); assay: Inhibition of PDE5 (unknown origin) at 3 nM relative to control
[8] = test system: MCF7; assay: Antiproliferative activity against human MCF7 cells assessed as cell growth inhibition; format: functional, cell-based
[9] = test system: MDA-MB-231; assay: Antiproliferative activity against human MDA-MB-231 cells assessed as cell growth inhibition; format: functional, cell-based
[10] = test system: MDA-MB-231; assay: Cytotoxicity against human MDA-MB-231 cells at 50 ug/ml relative to control; format: functional; conditions: dose 50 µg/ml
[11] = test system: L929; assay: Cytotoxicity against mouse L929 cells at 50 ug/ml relative to control; format: toxicity, cell-based; conditions: at 50 µg/mL
[12] = test system: MCF7; assay: Anticancer activity against human MCF7 cells assessed as reduction in cell viability; format: functional, cell-based
[13] = test system: HepG2; assay: Anticancer activity against human HepG2 cells assessed as reduction in cell viability; format: functional, cell-based
[14] = test system: K562; assay: Antiproliferative activity against human K562 cells measured upto 72 hrs by microscopy based analysis; format: functional, cell-based; conditions: K562, 72 h
[15] = test system: U-937; assay: Antiproliferative activity against human U-937 cells measured upto 72 hrs by microscopy based analysis; format: functional, cell-based; conditions: U-937, 72 h
[16] = test system: A549; assay: Antiproliferative activity against human A549 cells; format: functional, cell-based
[17] = test system: MCF7; assay: Antiproliferative activity against human MCF7 cells; format: functional, cell-based
[18] = Anticancer activity against human Panel (56 tumour cell lines) at 10 uM relative to control; format: functional
[19] = test system: A549; assay: Anticancer activity against human A549 cells incubated for 48 hrs by MTT assay; format: functional, cell-based; conditions: A549, 48 h
[20] = test system: MCF7; assay: Anticancer activity against human MCF7 cells incubated for 48 hrs by MTT assay; format: functional, cell-based; conditions: MCF7, 48 h
[21] = test system: HepG2; assay: Anticancer activity against human HepG2 cells incubated for 48 hrs by MTT assay; format: functional, cell-based; conditions: HepG2, 48 h
[22] = test system: HCT-116; assay: Anticancer activity against human HCT-116 cells incubated for 48 hrs by MTT assay; format: functional, cell-based; conditions: HCT-116, 48 h
[23] = Anticancer activity against human U87 cells incubated for 48 hrs by MTT assay; format: functional, cell-based, U-87MG ATCC; conditions: U-87 MG
[24] = test system: HeLa; assay: Cytotoxicity against human HeLa cells; format: functional, cell-based
[25] = Cytotoxicity against green monkey Vero cells; format: toxicity, cell-based; conditions: green monkey (Chlorocebus sabaeus)
[26] = test system: HT-29; assay: Antiproliferative activity against human HT-29 cells assessed as inhibition of cell growth; format: functional, cell-based
[27] = test system: MCF7; assay: Antiproliferative activity against human MCF7 cells assessed as inhibition of cell growth; format: functional, cell-based
[28] = test system: A2780; assay: Antiproliferative activity against human A2780 cells assessed as inhibition of cell growth; format: functional, cell-based
[29] = test system: A549; assay: Antiproliferative activity against human A549 cells assessed as reduction in cell viability; format: functional, cell-based
[30] = test system: HeLa; assay: Antiproliferative activity against human HeLa cells; format: functional, cell-based
[31] = test system: MCF7; assay: Antiproliferative activity against human MCF7 cells assessed as reduction in cell viability; format: functional, cell-based
[32] = test system: MDA-MB-231; assay: Antiproliferative activity against human MDA-MB-231 cells; format: functional, cell-based
[33] = biological target: Tumour suppressor p53/oncoprotein Mdm2 (Homo sapiens) (UniProt P04637+Q00987); assay: Inhibition of MDM2/p53 (unknown origin) interaction at 10 uM relative to control; format: protein assay
Tumour suppressor p53/oncoprotein Mdm2 (Homo sapiens), sequence (P04637 whole entry, looked up): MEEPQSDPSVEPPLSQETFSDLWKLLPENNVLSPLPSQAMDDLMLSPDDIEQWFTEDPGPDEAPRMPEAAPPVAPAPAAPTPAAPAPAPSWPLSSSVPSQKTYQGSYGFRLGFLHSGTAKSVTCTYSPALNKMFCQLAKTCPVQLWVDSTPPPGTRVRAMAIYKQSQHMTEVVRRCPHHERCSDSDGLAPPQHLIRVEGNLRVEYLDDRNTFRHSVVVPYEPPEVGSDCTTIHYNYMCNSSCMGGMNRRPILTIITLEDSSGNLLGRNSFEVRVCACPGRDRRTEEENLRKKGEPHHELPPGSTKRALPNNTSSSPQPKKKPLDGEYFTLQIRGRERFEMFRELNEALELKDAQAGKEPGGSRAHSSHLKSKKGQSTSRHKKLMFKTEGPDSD
Tumour suppressor p53/oncoprotein Mdm2 (Homo sapiens), sequence (Q00987 whole entry, looked up): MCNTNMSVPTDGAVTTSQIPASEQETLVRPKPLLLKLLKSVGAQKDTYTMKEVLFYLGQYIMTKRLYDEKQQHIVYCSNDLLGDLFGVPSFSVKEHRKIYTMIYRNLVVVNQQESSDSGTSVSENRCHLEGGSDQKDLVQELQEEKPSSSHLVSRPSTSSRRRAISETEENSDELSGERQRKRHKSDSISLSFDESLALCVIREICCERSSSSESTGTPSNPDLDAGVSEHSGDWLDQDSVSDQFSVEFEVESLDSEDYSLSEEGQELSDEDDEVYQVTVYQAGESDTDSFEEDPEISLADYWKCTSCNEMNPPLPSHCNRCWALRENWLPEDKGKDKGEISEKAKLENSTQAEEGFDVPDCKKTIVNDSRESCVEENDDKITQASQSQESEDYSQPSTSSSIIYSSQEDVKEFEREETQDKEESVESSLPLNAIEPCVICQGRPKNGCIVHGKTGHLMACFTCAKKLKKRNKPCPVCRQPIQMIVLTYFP

C[C@]12CC[C@H](O)CC1=CCC1C2CC[C@@]2(C)C1CC[C@@H]2C1=CC2(C(=O)Nc3c(Cl)cccc32)C(C#N)=C(N)N1 (stereo partly drawn)
IC50 [1]: 33 µM
IC50 [2]: 6.4 µM
IC50 [3]: 17.2 µM
IC50 [4]: 29.2 µM

CN1C(=O)N(C)C(=O)C2(CC3(C(=O)c4ccccc4C3=O)N(C)[C@H]2c2ccc(Br)cc2)C1=O
IC50 [5]: 5.2 µM
IC50 [6]: 7.3 µM

CCOC(=O)N1CCC2(CC1)NC(=O)c1ccccc1N2
inhibition [7]: 100%

O=C1N(C2CCCCC2)C(=O)C2(CC(c3ccccc3O)=NCCO2)N1C1CCCCC1 (stereo not drawn)
IC50 [8]: 66.3 µM
IC50 [9]: 97.1 µM

C[C@]12CC[C@H](O)CC1=CCC1C2CC[C@@]2(C)C1CC[C@@H]2C1=CC2(C(=O)Nc3ccc(F)cc32)C(C#N)=C(N)N1 (stereo partly drawn)
IC50 [1]: 21.3 µM
IC50 [2]: 2.6 µM
IC50 [3]: 13.8 µM
IC50 [4]: 10.9 µM

CN1CCN(Cc2ccc([N+](=O)[O-])cc2)P12=NP(N1CCCCC1)(N1CCCCC1)=NP(N1CCCCC1)(N1CCCCC1)=N2 (stereo not drawn)
Activity [10]: 30%
Activity [11]: 70%

N#Cc1c(N)nc2c(c1-c1ccc(Cl)cc1)SC1(CCCCC1)N2c1ccc(N)cc1
IC50 [12]: 30 µg/mL (≈ 67 µM)
IC50 [13]: 14.3 µg/mL (≈ 31.9 µM)

O=C1CC(c2ccccc2)C2(C(=O)Oc3ccccc3C2=O)C(c2ccccc2)C1 (stereo not drawn)
IC50 [14]: 74 µM
IC50 [15]: 51.6 µM

N#Cc1c(-c2ccc(Cl)cc2)c2c(n(CC(=O)O)c1=O)N(c1ccc(N)cc1)C1(CCCCC1)S2
IC50 [12]: 12.6 µg/mL (≈ 24.9 µM)
IC50 [13]: 9.29 µg/mL (≈ 18.3 µM)

CN1CCN(Cc2ccc([N+](=O)[O-])cc2)P12=NP(N1CCCC1)(N1CCCC1)=NP(N1CCCC1)(N1CCCC1)=N2 (stereo not drawn)
Activity [10]: 30%
Activity [11]: 70%

CCC(C)N1C(=O)C2(C(C#N)=C(N)Oc3c2c(=O)oc2ccccc32)c2ccccc21 (stereo not drawn)
IC50 [16]: 34.1 µM
IC50 [17]: 37.6 µM

CC(C)(C)OC(=O)N1CCC2(CC1)NC(=O)c1ccccc1N2
inhibition at 10 µM [18]: 100%

CCOC(=O)[C@H]1[C@@H](NO)[C@@H]2c3ccccc3OC(C)(C)[C@H]2[C@H](O)[C@]12C(=O)Nc1ccc(F)cc12
IC50 [19]: 4.8 µM
IC50 [20]: 2.5 µM
IC50 [21]: 16.2 µM
IC50 [22]: 25.4 µM
IC50 [23]: 41.9 µM

O=C(c1ccccn1)[C@@H]1[C@@H](c2ccccc2Cl)[C@H](c2ccccc2)NC12C(=O)Nc1ccccc12 (stereo partly drawn)
IC50 [24]: 70 µg/mL (≈ 146 µM)
IC50 [25]: > 110 µg/mL

N#CC1=C(N)Oc2c(c(=O)oc3ccccc23)C12C(=O)N(Cc1cccc(Br)c1)c1ccccc12 (stereo not drawn)
IC50 [16]: 29.3 µM
IC50 [17]: 16.2 µM

CCOC(=O)[C@H]1[C@@H](NO)[C@@H]2c3ccccc3OC(C)(C)[C@H]2[C@H](O)[C@]12C(=O)Nc1ccc(Cl)cc12
IC50 [19]: 5.9 µM
IC50 [20]: 1.7 µM
IC50 [21]: 18.4 µM
IC50 [22]: 13 µM
IC50 [23]: 37.5 µM

O=C1NC2(CCCCC2)Nc2ccccc21
inhibition [7]: 100%

O=C1CC2(CCN(S(=O)(=O)c3ccccc3)CC2)Oc2ccccc21
IC50 [26]: 0.47 µM
IC50 [27]: 5.62 µM
IC50 [28]: 0.31 µM

O=C1C=CC2(C=C1Br)OCC(=O)N2c1nc(-c2cccc(Cl)c2)nn1-c1ccccc1 (stereo not drawn)
IC50 [29]: 0.0252 µM
IC50 [30]: 0.0453 µM
IC50 [31]: 0.00411 µM
IC50 [32]: 0.0008 µM

NC(=O)C1CN(C(=O)N2CCCCC2)C2(C(=O)Nc3ccccc32)C1c1ccccc1O (stereo not drawn)
inhibition [33]: 65.4%

COc1ccc(-n2nc(-c3ccccc3)nc2N2C(=O)COC23C=CC(=O)C=C3)cc1
IC50 [29]: 0.0268 µM
IC50 [30]: 0.01 µM
IC50 [31]: 0.0888 µM
IC50 [32]: 0.0277 µM
